Laboratory results from article PMC5094555, “Human Mitochondrial Cytochrome b Variants Studied in Yeast: Not All Are Silent Polymorphisms” (Human Mutation, 2016).

Tests used:
[1] = target: yeast complex III, cytochrome b p.Ser172Gly (Saccharomyces cerevisiae, UniProt P00163, S172G); type: biochemical; conditions: this work
Method: Yeast mitochondria were prepared as in Lemaire and Dujardin (2008). Briefly, yeast grown in YPGal medium were harvested at mid‐log phase. Protoplasts were obtained by enzymatic digestion of the cell wall using zymolyase in an osmotic protection buffer. Mitochondria were then prepared by differential centrifugation following osmotic shock of the protoplasts. Mitochondrial samples were aliquoted and stored at −80°C. Concentration of complex III in the mitochondrial samples was determined from dithionite‐reduced optical spectra, using ε = 28.5 mM^−1/cm at 562 − 575 nm. Decylubiquinol‐cytochrome c reductase activities were determined at room temperature by measuring the reduction of cytochrome c (final concentration of 20 μM) at 550 nm versus 540 nm over 1‐min time course in 10 mM potassium phosphate pH 7, 0.01% (w/v) lauryl‐maltoside and 1 mM KCN. Mitochondria were added to obtain a final concentration of 5–30 nM of complex III. […] Initial rates were measured as a function of the decylubiquinol concentration. […]
Cytochrome c reduction activity was measured as described above in the presence of increasing concentrations of inhibitors (six to 10 different concentrations). […] The midpoint inhibition concentrations (IC50) were determined from the titrations and the IC50 values were normalized by the concentration of complex III.

[2] = system: yeast AD1-9 strains (wild type and cytochrome b mutants); assay: Respiratory growth assay with increasing concentration of drug; type: cell-based, Saccharomyces cerevisiae
Method: Diploids were used in the experiments, except for monitoring the sensitivity of respiratory growth to atovaquone, where the AD1‐9 series was used.
Yeast strains were grown in 5 ml of YPEth medium with increasing concentration of drug. Cultures were inoculated from 1‐day‐old cultures on YPG to an OD600 nm of 0.2 and incubated at 28°C with vigorous shaking to maintain good aeration. Cell densities measured as OD600 nm were estimated 2 or 3 days after inoculation.

[3] = system: yeast complex III, cytochrome b CysCysVal 133-135 ValLeuPro; design: method as in Fisher and Meunier 2005; conditions: ref Fisher and Meunier 2005; cited from earlier work
[4] = system: yeast complex III, cytochrome b p.His141Phe; design: method as in Fisher and Meunier 2005; conditions: ref Fisher and Meunier 2005; cited from earlier work
[5] = system: malaria parasite complex III; design: method as in Biagini et al., 2008; conditions: atovaquone; malaria parasite enzyme; ref Biagini et al., 2008; cited from earlier work
[6] = system: yeast complex III, cytochrome b p.His141Tyr; design: method as in Vallières et al. 2013; conditions: ref Vallières et al. 2013; cited from earlier work
bovine complex III = target: T1, bovine complex III (Bos taurus, UniProt P00157); design: method as in Vallières et al., 2013; conditions: atovaquone; per nM complex III; bovine enzyme; ref Vallières et al., 2013; read-out: IC50 (midpoint inhibition concentration); cited from earlier work
T1 construct: catalytic activity of bovine and yeast complex III, using purified mitochondria; from tissue

[7] = target: T2, yeast complex III (wild type) (Saccharomyces cerevisiae, UniProt P00163); design: method as in Vallières et al., 2013; conditions: atovaquone; per nM complex III; yeast enzyme; ref Vallières et al., 2013; read-out: IC50 (midpoint inhibition concentration); cited from earlier work
T2 construct: Mitochondria were added to obtain a final concentration of 5–30 nM of complex III; endogenous in cells; host or cells: mitochondria prepared from S. cerevisiae grown in YPGal (diploid strains)

Q: What does the source list for O=C1C(O)=C([C@H]2CC[C@H](c3ccc(Cl)cc3)CC2)C(=O)c2ccccc21 [atovaquone]?
A: atovaquone sensitivity (IC50 mutant/IC50 control) [1]: 1.1; Sensitivity of respiratory growth to atovaquone ([2]; strain HS-p.Ser172Asn (humanised Qo site), versus control strain (Fig. 3C)): inhibited at slightly higher doses of atovaquone than the control strain; Sensitivity of respiratory growth to atovaquone ([2]; strain HS-p.Ser172Asn versus HS-p.Ser172Asp (Fig. 3C)): more sensitive; Sensitivity of respiratory growth to atovaquone ([2]; strain HS-p.Ser172Asp (humanised Qo site), versus control strain (Fig. 3C)): inhibited at slightly higher doses of atovaquone than the control strain; Sensitivity of respiratory growth to atovaquone ([2]; strain p.Ser172Asn, compared with p.Ser172Asp and p.Leu150Phe (Fig. 3B)): increased sensitivity compared with p.Ser172Asp; Sensitivity of respiratory growth to atovaquone ([2]; strain p.Ser172Gly, compared with p.Ser172Asp and p.Leu150Phe (Fig. 3B)): increased sensitivity compared with p.Ser172Asp; Sensitivity of respiratory growth to atovaquone ([2]; wt strain, compared with p.Ser172Asp and p.Leu150Phe (Fig. 3B)): increased sensitivity compared with p.Ser172Asp; atovaquone sensitivity (IC50 mutant/IC50 control) [3]: 3.5; atovaquone sensitivity (IC50 mutant/IC50 control) [4]: 0.4; IC50 [5]: ~3 nM; atovaquone sensitivity (IC50 mutant/IC50 control) [6]: 0.5; IC50 (bovine complex III): 75 nM; IC50 [7]: 4 nM
